Molecular target: MTH1 (Homo sapiens, UniProt P36639)
Test: MTH1 enzymatic assay (malachite green, coupled to pyrophosphatase)
Assay type: biochemical
Conditions: dGTP 100 μM, MTH1 6 nM; 96- or 384-well format; read-out: IC50
Procedure: MTH1 catalyzes the hydrolysis of dGTP to dGMP and PPi. By coupling the reaction to pyrophosphatase added in excess PPi is converted to Pi that can be detected by using the malachite green assay reagent. […] 96-well method: Briefly, the compound to be analyzed is diluted in DMSO in a 1:3 dilution series generating 12 different compound concentrations giving a final DMSO concentration of 1% in the assay well. MTH1 diluted in assay buffer (100 mM Tris-acetate, 40 mM NaCl, 10 mM magnesium acetate, 1 mM DTT and 0.005% Tween 20) fortified with E. coli pyrophosphatase (0.2 U/ml) is added to a final concentration of 6 nM. dGTP diluted in assay buffer is added to a final concentration of 100 μM. The reaction mixture is incubated for 15 minutes at 22° C. To 100 μl reaction mixture, 25 μl Malachite green assay regent (0.095% Malachite green in 17% H2SO4, 1.5% Ammonium molybdate, 0.17% Tween 20) is added, followed by incubation with shaking for 15 minutes at 22° C. The absorbance of the assay plate is read at 630 nm using a Hidex Sense Multilabel plate reader. The IC50 value is determined by fitting a dose response curve to the data points using nonlinear regression analysis and the equation Y=Bottom+(Top-Bottom)/(1+10^((Log IC50−X)*HillSlope)), where Y is the read absorbance at 630 nm and X is log [compound].
384-Well Method: The compounds to be tested are nano-dispensed, in 11 concentrations, directly in assay plates, with a final DMSO concentration <1%. The protocol and the reaction mixture are the same as for the 96-well assay, with a total reaction volume of 50 μl/well to which 10 μl of Malachite green reagent is added. All additions to the assay plates are made with multidrop.

Row | Structure (SMILES) | IC50
1 | CNc1cc(-c2cc(Br)ccc2OC)nc(N)n1 [Example 183, 6-(5-bromo-2-methoxyphenyl)-4-N-methylpyrimidine-2,4-diamine] | < 200 nM
2 | CNc1cc(-c2cc(C)ccc2C)nc(N)n1 [Example 184, 6-(2,5-dimethylphenyl)-4-N-methylpyrimidine-2,4-diamine] | < 200 nM
3 | CNc1cc(-c2cccnc2C(F)(F)F)nc(N)n1 [Example 185, 4-N-methyl-6-[2-(trifluoromethyl)pyridin-3-yl]pyrimidine-2,4-diamine] | < 200 nM
4 | CNc1cc(-c2ccc(OCc3ccccc3)cc2C)nc(N)n1 [Example 187, 6-[4-(benzyloxy)-2-methylphenyl]-4-N-methylpyrimidine-2,4-diamine] | < 200 nM
5 | CNc1cc(-c2cc(C)c(OC)cc2C)nc(N)n1 [Example 188, 6-(4-methoxy-2,5-dimethylphenyl)-4-N-methylpyrimidine-2,4-diamine] | < 200 nM
6 | CNc1cc(-c2cc(C)c(C)cc2C)nc(N)n1 [Example 189, 4-N-methyl-6-(2,4,5-trimethylphenyl)pyrimidine-2,4-diamine] | < 200 nM
7 | CNc1cc(-c2cc(Cl)ccc2C#N)nc(N)n1 [Example 190, 2-[2-amino-6-(methylamino)pyrimidin-4-yl]-4-chlorobenzonitrile] | < 200 nM
8 | CNc1cc(-c2cc(Cl)c(Cl)cc2C)nc(N)n1 [Example 191, 6-(4,5-dichloro-2-methylphenyl)-4-N-methylpyrimidine-2,4-diamine] | < 200 nM
9 | CNc1cc(-c2cc(C)c(F)cc2C)nc(N)n1 [Example 193, 6-(4-fluoro-2,5-dimethylphenyl)-4-N-methylpyrimidine-2,4-diamine] | < 200 nM
10 | CNc1cc(-c2cc(C(F)(F)F)ccc2C)nc(N)n1 [Example 194, 4-N-methyl-6-[2-methyl-5-(trifluoromethyl)phenyl]pyrimidine-2,4-diamine] | < 200 nM
11 | CNc1cc(-c2cc(Cl)c(C(F)(F)F)cc2C)nc(N)n1 [Example 195, 6-[5-chloro-2-methyl-4-(trifluoromethyl)phenyl]-4-N-methylpyrimidine-2,4-diamine] | < 200 nM
12 | CNc1cc(-c2cc(C(F)(F)F)ccc2C(F)(F)F)nc(N)n1 [Example 196, 6-[2,5-bis(trifluoromethyl)phenyl]-4-N-methylpyrimidine-2,4-diamine] | < 200 nM
13 | CNc1cc(-c2cc(C)ccc2F)nc(N)n1 [Example 200, 6-(2-fluoro-5-methylphenyl)-4-N-methylpyrimidine-2,4-diamine] | < 200 nM
14 | CNc1cc(-c2cc(C)ccc2OC)nc(N)n1 [Example 204, 6-(2-methoxy-5-methylphenyl)-4-N-methylpyrimidine-2,4-diamine] | < 200 nM
15 | CNc1cc(-c2cc(F)ccc2Cl)nc(N)n1 [Example 205, 6-(2-chloro-5-fluorophenyl)-4-N-methylpyrimidine-2,4-diamine] | < 200 nM
16 | CNc1cc(-c2cc(C#N)ccc2F)nc(N)n1 [Example 206, 3-[2-amino-6-(methylamino)pyrimidin-4-yl]-4-fluorobenzonitrile] | < 200 nM
17 | CNc1cc(-c2cc(OC)ccc2Cl)nc(N)n1 [Example 207, 6-(2-chloro-5-methoxyphenyl)-4-N-methylpyrimidine-2,4-diamine] | < 200 nM
18 | CNc1cc(-c2cc(Cl)c(C)cc2F)nc(N)n1 [Example 214, 6-(5-chloro-2-fluoro-4-methylphenyl)-4-N-methylpyrimidine-2,4-diamine] | < 200 nM
19 | Cc1cc(-c2cc(NC3CC3)nc(N)n2)c(C)cc1F [Example 216, 4-N-cyclopropyl-6-(4-fluoro-2,5-dimethylphenyl)pyrimidine-2,4-diamine] | < 200 nM
20 | COc1cc(C)c(-c2cc(NC3CC3)nc(N)n2)cc1C [Example 217, 4-N-cyclopropyl-6-(4-methoxy-2,5-dimethylphenyl)pyrimidine-2,4-diamine] | < 200 nM
21 | Cc1ccc(C)c(-c2cc(NC3CC3)nc(N)n2)c1 [Example 218, 4-N-cyclopropyl-6-(2,5-dimethylphenyl)pyrimidine-2,4-diamine] | < 200 nM

Row | Structure (SMILES) | IC50
22 | CCNc1cc(-c2cc(Cl)ccc2C)nc(N)n1 [Example 221, 6-(5-chloro-2-methylphenyl)-4-N-ethylpyrimidine-2,4-diamine] | < 200 nM
23 | Cc1cc(-c2cc(NCCc3ccc(Cl)cc3)nc(N)n2)c(C)cc1F [Example 223, 4-N-[2-(4-chlorophenyl)ethyl]-6-(4-fluoro-2,5-dimethylphenyl)pyrimidine-2,4-diamine] | < 200 nM
24 | Cc1ccc(C)c(-c2cc(NCCc3ccc(Cl)cc3)nc(N)n2)c1 [Example 224, 4-N-[2-(4-chlorophenyl)ethyl]-6-(2,5-dimethylphenyl)pyrimidine-2,4-diamine] | < 200 nM
25 | CNc1cc(-c2ccc(/C=C/C(=O)O)cc2)nc(N)n1 [Example 233, (2E)-3-{4-[2-amino-6-(methylamino)pyrimidin-4-yl]phenyl}prop-2-enoic acid] | < 200 nM
26 | Cc1cccc(-c2cc(NCC3CN(C(=O)OC(C)(C)C)C3)nc(N)n2)c1C [Example 234, tert-butyl 3-({[2-amino-6-(2,3-dimethylphenyl)pyrimidin-4-yl]amino}methyl)-azetidine-1-carboxylate] | < 200 nM
27 | Nc1nc(NC2CC2)cc(-c2ccc3[nH]ccc3c2)n1 [Example 235, 4-N-cyclopropyl-6-(1H-indol-5-yl)pyrimidine-2,4-diamine] | < 200 nM
28 | Cc1cccc(-c2cc(NCC(C)(C)CNC(=O)OC(C)(C)C)nc(N)n2)c1C [Example 239, tert-Butyl (3-((2-amino-6-(2,3-dimethylphenyl)pyrimidin-4-yl)amino)-2,2-dimethyl-propyl)carbamate] | < 200 nM
29 | CNc1cc(-c2cc(Cl)c(OC)cc2C)nc(N)n1 [Example 240, 6-(5-chloro-4-methoxy-2-methylphenyl)-4-N-methylpyrimidine-2,4-diamine] | < 200 nM
30 | Cc1c(Cl)cccc1-c1cc(NC(C)Cc2c[nH]c3ccccc23)nc(N)n1 (stereo not drawn) [Example 243, 6-(3-chloro-2-methylphenyl)-4-N-[1-(1H-indol-3-yl)propan-2-yl]pyrimidine-2,4-diamine] | < 200 nM
31 | Cc1cccc(-c2cc(NCCOc3ccccc3Cl)nc(N)n2)c1C [Example 247, 4-N-[2-(2-chlorophenoxy)ethyl]-6-(2,3-dimethylphenyl)pyrimidine-2,4-diamine] | < 200 nM
32 | Cc1cccc(-c2cc(NCCc3nc4cc(Cl)ccc4[nH]3)nc(N)n2)c1C [Example 248, 4-N-[2-(5-chloro-1H-1,3-benzodiazol-2-yl)ethyl]-6-(2,3-dimethylphenyl)pyrimidine-2,4-diamine] | < 200 nM
33 | Cc1cccc(-c2cc(NCC(C)Oc3cccnc3)nc(N)n2)c1C (stereo not drawn) [Example 250, 6-(2,3-dimethylphenyl)-4-N-[2-(pyridin-3-yloxy)propyl]pyrimidine-2,4-diamine] | < 200 nM
34 | Cc1cccc(-c2cc(NCc3ccc4[nH]ncc4c3)nc(N)n2)c1C [Example 251, 6-(2,3-dimethylphenyl)-4-N-(1H-indazol-5-ylmethyl)pyrimidine-2,4-diamine] | < 200 nM
35 | COc1cc(CNc2cc(-c3cccc(C)c3C)nc(N)n2)ccn1 [Example 253, 6-(2,3-dimethylphenyl)-4-N-[(2-methoxypyridin-4-yl)methyl]pyrimidine-2,4-diamine] | < 200 nM
36 | CNc1cc(-c2cccc(C#N)c2C)nc(N)n1 [Example 258, 3-[2-amino-6-(methylamino)pyrimidin-4-yl]-2-methylbenzonitrile] | < 200 nM
37 | CNc1cc(-c2cccc3c2OCC3)nc(N)n1 [Example 261, 6-(2,3-dihydro-1-benzofuran-7-yl)-4-N-methylpyrimidine-2,4-diamine] | < 200 nM
38 | CNc1cc(-c2cc(S(=O)(=O)N3CCOCC3)ccc2C)nc(N)n1 [Example 262, 4-N-methyl-6-[2-methyl-5-(morpholine-4-sulfonyl)phenyl]pyrimidine-2,4-diamine] | < 200 nM
39 | Nc1nc(NCCc2ccc(Cl)cc2)cc(-c2cccc(Cl)c2Cl)n1 [Example 263, 4-N-[2-(4-chlorophenyl)ethyl]-6-(2,3-dichlorophenyl)pyrimidine-2,4-diamine] | < 200 nM
40 | Cc1cccc(-c2cc(NCCc3cccnc3)nc(N)n2)c1C [Example 268, 6-(2,3-dimethylphenyl)-4-N-[2-(pyridin-3-yl)ethyl]pyrimidine-2,4-diamine] | < 200 nM
41 | Cc1cccc(-c2cc(NCCNC(=O)OC(C)(C)C)nc(N)n2)c1C [Example 271, tert-butyl N-(2-{[2-amino-6-(2,3-dimethylphenyl)pyrimidin-4-yl]amino}ethyl)-carbamate] | < 200 nM
42 | Cc1cccc(-c2cc(NCCN(C)C(=O)OC(C)(C)C)nc(N)n2)c1C [Example 274, tert-butyl N-(2-{[2-amino-6-(2,3-dimethylphenyl)pyrimidin-4-yl]amino}ethyl)-N-methylcarbamate] | < 200 nM

— patent publication US10632125B2, “MTH1 inhibitors for treatment of inflammatory and autoimmune conditions” (THOMAS HELLEDAYS STIFTELSE FÖR MEDICINSK FORSKNING, priority 2014, dated 2020)
